Several values for one entry are separate records, joined by “and”; a condition that tells them apart may be missing. Equal values may be shown once. Read-outs that look alike come from different tables or passages of the source.
Experiments:
[1] = test system: Shionogi mouse mammary carcinoma cells; assay: In vitro androgenic/antiandrogenic activity: proliferation of Shionogi cells with or without DHT; assay type: cell-based; conditions: for stimulation at 10^−7M on basal Shionogi cell proliferation (in words): basal (no DHT)
Human Androgen Receptor = Human Androgen Receptor (Homo sapiens (Human), UniProt P10275); assay: Androgen receptor assay: [3H]R1881 displacement, cytosol of HEK-293 cells transfected with hAR (hydroxylapatite assay); assay type: binding
Chain of Human Androgen Receptor (P10275 whole entry): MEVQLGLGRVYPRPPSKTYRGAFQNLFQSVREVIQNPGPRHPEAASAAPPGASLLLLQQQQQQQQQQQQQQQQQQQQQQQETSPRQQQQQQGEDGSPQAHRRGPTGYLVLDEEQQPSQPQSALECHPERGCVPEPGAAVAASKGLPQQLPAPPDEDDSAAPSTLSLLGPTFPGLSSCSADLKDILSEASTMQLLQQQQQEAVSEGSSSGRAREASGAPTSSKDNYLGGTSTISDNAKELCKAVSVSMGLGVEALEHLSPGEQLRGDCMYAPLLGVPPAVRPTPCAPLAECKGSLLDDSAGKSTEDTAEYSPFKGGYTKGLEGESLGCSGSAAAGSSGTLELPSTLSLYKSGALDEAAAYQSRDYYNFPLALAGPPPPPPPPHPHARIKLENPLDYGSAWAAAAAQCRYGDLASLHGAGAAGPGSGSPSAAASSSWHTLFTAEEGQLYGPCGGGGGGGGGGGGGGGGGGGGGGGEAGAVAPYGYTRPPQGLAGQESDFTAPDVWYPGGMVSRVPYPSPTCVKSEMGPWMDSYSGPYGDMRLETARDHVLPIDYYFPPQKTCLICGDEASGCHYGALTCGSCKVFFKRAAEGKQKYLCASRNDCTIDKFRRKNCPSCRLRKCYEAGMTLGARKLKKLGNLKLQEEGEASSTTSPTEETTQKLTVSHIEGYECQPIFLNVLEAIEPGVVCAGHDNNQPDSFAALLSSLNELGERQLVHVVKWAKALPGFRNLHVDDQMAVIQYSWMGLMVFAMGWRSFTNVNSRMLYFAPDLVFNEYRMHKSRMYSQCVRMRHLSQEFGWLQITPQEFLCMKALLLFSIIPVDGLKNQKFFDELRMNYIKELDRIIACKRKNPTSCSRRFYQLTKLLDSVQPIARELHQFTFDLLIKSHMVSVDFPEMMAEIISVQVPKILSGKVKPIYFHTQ

[2] = test system: castrated (CX) immature male rats; assay: Systemic androgenic (agonistic) activity in orchidectomized (CX) immature male rats; assay type: in vivo, rat; conditions: 0.1 mg/rat/po, 7 days; for CX Agonistic activity % Stimulation Bulbo: bulbocavernosus muscles weight; for CX Agonistic activity % Stimulation SV: seminal vesicles weight; for CX Agonistic activity % Stimulation Prostate: ventral prostate weight
Method: Immature male rats (Crl:CD(SD)Br) 22 to 24-day old weighting 60-80 g at start of treatment were obtained from Charles-River, Inc. (St-Constant, Quebec, Canada) and housed up to 5 per cage in plastic bins in a temperature (23±1° C.)- and light (12 h light/day, lights on at 7 h15)-controlled environment. The rats were fed rodent chow and tap water ad libitum. […] The day following their arrival, the designed animals were orchidectomized (CX) under Isoflurane anesthesia (Study Day 1) via the scrotal route and were then randomly assigned to groups of 3 to 5 animals. At the time of orchidectomy, one silastic implant of dihydrotestosterone (DHT; 1 cm length of pure DHT in silastic tubing having inner and outer diameter of 0.078 and 0.125 inches, respectively), was inserted subcutaneously in the dorsal area of animals assigned to the evaluation of antiandrogenic activity. In the case of intact animal experiments, the orchidectomy and the silastic implant installation are omitted.
Tested compounds were administered orally once daily for 7 days from Study Day 2 to Study Day 8 at doses generally ranging from 0.1 and 0.5 mg/animal. Compounds were either solubilized in dimethylsulfoxide (DMSO, 10% final concentration) and were administered as a solution/suspension in 0.9% NaCl-1% gelatin or were administered as suspensions in 0.4% aqueous methylcellulose. Animals of the control groups received the corresponding vehicle alone during the 7-day period. Some animals were treated with the antiandrogen Flutamide or Casodex as reference. The animals under isoflurane anesthesia were killed by cervical dislocation on day 9 of the study, approximately 24 h after the last dosing. The ventral prostate, seminal vesicles and bulbocavernosus muscles were rapidly dissected and weighed.
For calculations with intact animals, control DHT is replaced by control intact and the % stimulation is subtracted by 100%. W is the weight of the prostate, seminal vesicles or bulbocavernosus muscles. Discussion

[3] = relative binding affinity, R1881 = 100, transfected cells
[4] = Mus musculus, read-out: Shionogi Antiandrogenic Activity IC50, DHT (0.3 nM)-stimulated cell number
[5] = relative binding affinity, R1881 = 100, […]
[6] = read-out: Shionogi Antiandrogenic Activity IC50, DHT (0.3 nM)-stimulated cell number

Structure (SMILES)	Human Androgen Receptor Binding RBA (%) R1881 = 100 (Human Androgen Receptor; [3])	IC50 [1, 4]	Human Androgen Receptor Binding RBA (%) R1881 = 100 (Human Androgen Receptor; [5])	also measured
CC1(C)C(=O)N(c2ccc(C#N)c(C(F)(F)F)c2)C(=S)N1CCCOc1ccc(CN2CCC(O)C2)cc1 (stereo not drawn) [EM-7365, reference compound]	24%			IC50 ([1]; DHT (0.3 nM)-stimulated cell number, read-out: Shionogi Antiandrogenic Activity IC50): 6 nM
CC1(C)C(=O)N(c2ccc(C#N)c(C(F)(F)F)c2)C(=S)N1CCCOc1ccc(-c2cccnc2)cc1 [EM-8840]		24 ± 6 nM	1090 ± 500 (n = 2) %	
CC1(C)C(=O)N(c2ccc(C#N)c(C(F)(F)F)c2)C(=S)N1CCCOc1ccc(-c2ccncc2)cc1 [EM-8841]		73 ± 5 nM	1200 ± 330 (n = 2) %	
CC1(C)C(=O)N(c2ccc(C#N)c(C(F)(F)F)c2)C(=S)N1CCCOc1ccc(-c2ccncc2)c(F)c1 [EM-8851]	3310% and 3310 ± 1780 (n = 2) %	77 ± 20 nM		
CC1(C)C(=O)N(c2ccc(C#N)c(C(F)(F)F)c2)C(=S)N1CCCOc1cccc(-c2ccncc2)c1 [EM-8871]		66 nM	558 ± 102 (n = 2) %	
CC1(C)C(=O)N(c2ccc(C#N)c(C(F)(F)F)c2)C(=S)N1CCCOc1ccc(-c2ccncc2)cc1F [EM-8872]		36 nM	723 ± 59 (n = 2) %	
CC1(C)C(=O)N(c2ccc(C#N)c(C(F)(F)F)c2)C(=S)N1CCCOc1ccc(-c2ccncc2)c(Cl)c1 [EM-8888]	1880 ± 1040 (n = 2) %			IC50 ([1]; Mus musculus, DHT (0.3 nM)-stimulated cell number, read-out: Shionogi Antiandrogenic Activity IC50): 111 nM
CC1(C)C(=O)N(c2ccc(C#N)c(C(F)(F)F)c2)C(=S)N1CCCOc1ccc(-c2ccncc2)c(C(F)(F)F)c1 [EM-8890]	59 ± 25 (n = 2) %	13.2 nM		
CC1(C)C(=O)N(c2ccc(C#N)c(C(F)(F)F)c2)C(=S)N1CCCOc1ccc(-c2ccncc2)cc1C(F)(F)F [EM-8900]		2.6 to 4.3 nM	130 ± 60 (n = 2) %	stimulation at 10^−7M on basal Shionogi cell proliferation (in words) [1]: none of these compounds has any activity; IC50 [1, 6]: 3.8 nM
Cc1ccc(-c2ccc(OCCCN3C(=S)N(c4ccc(C#N)c(C(F)(F)F)c4)C(=O)C3(C)C)cc2)cn1 [EM-8908]		50 nM	944 ± 265 (n = 2) %	
CC1(C)C(=O)N(c2ccc(C#N)c(C(F)(F)F)c2)C(=S)N1CCCOc1ccc(-c2ccnc(F)c2)cc1 [EM-8923]	136%	48 nM		
CC1(C)C(=O)N(c2ccc(C#N)c(C(F)(F)F)c2)C(=S)N1CCCOc1ccc(-c2cc[n+]([O-])cc2)cc1 [EM-8929]	100 ± 12 (n = 2) %			IC50 [1, 6]: 17 ± 10 nM
CC1(C)C(=O)N(c2ccc(C#N)c(C(F)(F)F)c2)C(=O)N1CCCOc1ccc(-c2cc[n+]([O-])cc2)cc1 [EM-9000]		20 ± 10 nM	1.5 ± 0.3 (n = 2) %	
CC1(C)C(=O)N(c2ccc(C#N)c(F)c2)C(=S)N1CCCOc1ccc(-c2ccncc2)c(F)c1 [EM-9011]	43 ± 9 (n = 2) %	6.6 ± 0.8 nM		
CC1(C)C(=O)N(c2ccc(C#N)c(F)c2)C(=S)N1CCCOc1ccc(-c2ccncc2)cc1 [EM-9025]	39%			stimulation at 10^−7M on basal Shionogi cell proliferation (in words) [1]: none of these compounds has any activity
CC1(C)C(=O)N(c2ccc(C#N)c(Cl)c2)C(=S)N1CCCOc1ccc(-c2ccncc2)c(F)c1 [EM-9037]	1040 ± 350 (n = 2) %	8.7 nM		
CC1(C)C(=O)N(c2ccc(C#N)c(Cl)c2)C(=S)N1CCCOc1ccc(-c2ccncc2)cc1 [EM-9039]		2.6 to 4.3 nM	762 ± 396 (n = 2) %	stimulation at 10^−7M on basal Shionogi cell proliferation (in words) [1]: none of these compounds has any activity; IC50 [1, 6]: 4.3 nM
CC1(C)C(=O)N(c2ccc(C#N)c(C(F)(F)F)c2)C(=S)N1CCCOc1ccc(-c2cc[n+]([O-])cc2)cc1.Cl [EM-9043]			175%	stimulation at 10^−7M on basal Shionogi cell proliferation (in words) [1]: none of these compounds has any activity; IC50 [1, 6]: 3.4 nM
CC1(C)C(=O)N(c2ccc(C#N)c(Cl)c2)C(=S)N1CCCOc1ccc(-c2cccnc2)cc1 [EM-9049]		6.8 nM	269%	
CC1(C)C(=O)N(c2ccc(C#N)c(C(F)(F)F)c2)C(=S)N1CCCOc1ccc(-c2ccncc2)cn1 [EM-9050]		12 ± 2 nM	317 ± 122 (n = 2) %	
CC1(C)C(=O)N(c2ccc(C#N)c(C(F)(F)F)c2)C(=O)N1CCCOc1ccc(-c2ccncc2)cc1F [EM-9055]	7.3%	10.6 nM		
Cc1c(N2C(=O)N(CCCOc3ccc(-c4ccncc4)cc3F)C(C)(C)C2=O)ccc(C#N)c1F [EM-9204]	22%			
Cc1c(N2C(=O)N(CCCOc3ccc(-c4cc[n+]([O-])cc4)c(F)c3)C(C)(C)C2=O)ccc(C#N)c1F [EM-9208]	2.2%			
CC1(C)C(=O)N(c2ccc(C#N)c(Cl)c2)C(=O)N1CCCOc1ccc(-c2cc[n+]([O-])cc2)cn1 [EM-9225]				Human Androgen Receptor Binding RBA (%) R1881 = 100 (Human Androgen Receptor): 0.8%
CC1(C)C(=O)N(c2ccc(C#N)c(Cl)c2)C(=O)N1CCCOc1ccc(-c2ccncc2)cc1Cl.Cl [EM-9287]			125 ± 9 (n = 3) %	
CC1(C)C(=O)N(c2ccc(C#N)c(Cl)c2)C(=O)N1CCCOc1ccc(-c2cc[n+]([O-])cc2)cc1Cl.Cl [EM-9288]			24 ± 8 (n = 2) %	
Cc1c(N2C(=O)N(CCCCc3ccc(-c4ccncc4)cc3)C(C)(C)C2=O)ccc(C#N)c1Cl [EM-9336]			32.3%	CX Agonistic activity % Stimulation Bulbo [2]: 59%; CX Agonistic activity % Stimulation SV [2]: 8%; CX Agonistic activity % Stimulation Prostate [2]: 27%
Cc1c(N2C(=O)N(CCOc3ccc(-c4ccncc4)cc3)C(C)(C)C2=O)ccc(C#N)c1Cl [EM-9337]			28.3%	CX Agonistic activity % Stimulation Bulbo [2]: 95%; CX Agonistic activity % Stimulation SV [2]: 17%; CX Agonistic activity % Stimulation Prostate [2]: 33%
Cc1c(N2C(=O)N(CCOc3ccc(-c4cc[n+]([O-])cc4)cc3)C(C)(C)C2=O)ccc(C#N)c1Cl [EM-9339]			4.0%	CX Agonistic activity % Stimulation Bulbo [2]: 68%; CX Agonistic activity % Stimulation SV [2]: 12%; CX Agonistic activity % Stimulation Prostate [2]: 27%
CC(C)(O)C(=O)Nc1ccc([N+](=O)[O-])c(C(F)(F)F)c1 [OH-FLU, hydroxyflutamide, reference compound]	0.21 ± 0.09 (n = 3) %			Human Androgen Receptor Binding RBA (%) R1881 = 100 (Human Androgen Receptor; relative binding affinity, R1881 = 100, transfected cells, listed as hydroxyflutamide): 0.21%

— patent publication US9682960B2 (priority 2013, dated 2017)
